Experimental findings from US6432433B1, “Liquid biocidal composition of a formaldehyde adduct and an isothiazolone and method of use” (ISP Investments Inc., priority 2000, dated 2002) are described below.

Several values for one entry are separate records, joined by “and”; a condition that tells them apart may be missing. Equal values may be shown once. Read-outs that look alike come from different tables or passages of the source.

Common to all, as to assay type: cell-based
The subject of assay [1] is Gliocladium virens (ATCC 9645). In words: MIC on Potato Dextrose Agar. As to conditions: for MIC: Trichoderma virens. The procedure: (§1) The agar was inoculated to contain about 1×10^6 CFU/ml bacterial cells or fungal spores.
(§2) The MIC were taken as end points of activity. End points for the mixture of NMPFA (DMO, MBO or HMAE) and BIT were then compared with the end points for the pure active compound when employed individually.
(§3) Synergism was determined by a commonly used method described by Kull, A. C., Eisman, P. C, Sylwestrowicz ,H., D. and Mayer, R. L. (1961). Applied Microbiology, 9:538 using the ratio determined by:
(§4) Qa/QA+Qb/QB=Synergy Index (SI)
(§5) where QA is the concentration of the formaldehyde adduct in parts per million (ppm), acting alone, which produced an end point. Qa is the concentration of the formaldehyde adduct in ppm, in the mixture, which produced an end point. QB is the concentration of BIT in ppm, acting alone, which produced an end point and Qb is the concentration of BIT in ppm, in the mixture, which produced an end point.
(§6) When the sum of Qa/QA+Qb/QB is greater than one, antagonism is indicated. When the sum is equal to one, additivity is indicated.

Assay [2] relates to Chaetomium globosum (ATCC 6205). In words: MIC on Potato Dextrose Agar. As to conditions: C. globosum; PDA, 28°, 7-10 days. The procedure:
as §1, §2, §3, §4, §5, §6

Assay [3] relates to Penicillium funiculosum (ATCC 11797). Kind of assay: MIC on Potato Dextrose Agar. As to conditions: P. funiculosum; PDA, 28°, 7-10 days. As to the method: as §1, §2, §3, §4, §5, §6
The test system of assay [4] is Aureobasidium pullulans (ATCC 9348). In words: MIC on Potato Dextrose Agar. As to conditions: A. pullulans; PDA, 28°, 7-10 days. The procedure:
as §1, §2, §3, §4, §5, §6

Assay [5] concerns Aspergillus niger (ATCC 6275). Kind of assay: MIC on Potato Dextrose Agar. As to conditions: A. niger; PDA, 28°, 7-10 days. As to the method:
as §1, §2, §3, §4, §5, §6

Assay [6] relates to mixed culture of P. aeruginosa, E. cloacae, B. subtilis, B. megaterium and B. licheniformis. Kind of assay: In-can preservation of latex paint (ASTM D2574-97), two challenges. As to conditions: polyvinyl acrylic paint, 32° C., mixed inoculum, rechallenged after 7 days. As to the method:
The efficacy of each individual compound or their combination was measured in a latex paint artificially contaminated with a mixed inoculum. The microbiological evaluations shown as examples, are based on ASTM D2574-97, “Resistance of emulsion paints in the container to the attack of microorganisms”. Briefly, paint samples (e.g. polyvinyl acrylic, PCL 717) were prepared to contain different concentrations of each compound or their mixtures in different concentrations and ratios. Each paint sample thus prepared was then inoculated with a mixed culture of P. aeruginosa, E. cloacae, B. subtilis, B. megaterium and B. licheniformis (final concentration of about 10^6 CFU/ml) and rechallenged after 7 days (final concentration of about 10^7 CFU/ml). Paint samples were incubated at 32° C. for the duration of the test and sampled for the presence of viable bacteria on TSA plates. A paint sample was considered appropriately preserved if no bacterial growth was detected after six days in both challenge assays. […]
1. The end-point activity in ppm obtained when no viable bacteria was detected after both challenges in a paint sample containing the compound A alone (QA), for compound A in the mixture (Qa), for compound B alone (QB) or for compound B in the mixture (Qb). […]
3. The calculated Synergy Index (SI), as described above

In assay [7] the test system is Enterobacter cloacae (ATCC 13047). In words: MIC on Tryptic Soy Agar. As to conditions: E. cloacae; TSA, 32° C., 48 hours. The procedure:
as §1, §2, §3, §4, §5, §6

Assay [8] has as its system Pseudomonas aeruginosa (ATCC 10145). Kind of assay: MIC on Tryptic Soy Agar. The settings on record: P. aeruginosa; TSA, 32° C., 48 hours. The procedure:
as §1, §2, §3, §4, §5, §6

Assay [9] has as its system Staphylococcus aureus (ATCC 6538). Kind of assay: MIC on Tryptic Soy Agar. The settings on record: S. aureus; TSA, 32° C., 48 hours. The procedure:
as §1, §2, §3, §4, §5, §6

In assay [10] the test system is Escherichia coli (ATCC 11229). Kind of assay: MIC on Tryptic Soy Agar. As to conditions: E. coli; TSA, 32° C., 48 hours. As to the method:
as §1, §2, §3, §4, §5, §6

The test system of assay [11] is Bacillus subtilis (ATCC 27328). In words: MIC on Tryptic Soy Agar. The settings on record: for MIC: Bacillus subtilis, read-out: MIC end point, compound alone (QA / QB). As to the method:
as §1, §2, §3, §4, §5, §6

The mark [12] stands for this setting: B. subtilis, TSA, 32° C., 48 hours.

On to `O=c1[nH]sc2ccccc12` [BIT, 1,2-benzisothiazolin-3-one, reference compound], for which the “MIC end point, compound alone (QA / QB)” value amounted to 100 ppm in [1] (G. virens, PDA, 28°, 7-10 days); 250 ppm in [2]; 25 ppm in assay [3]; 50 ppm in [4]; 250 ppm in assay [5]; 2500 ppm in [7]. Moreover, the “MIC end point, compound alone (QA / QB)” value in [8] was 250.0 ppm; in assay [9] it was 50 ppm; in assay [10], 50.0 ppm; in assay [11] (setting [12]), 25.0 ppm and 25 ppm. In addition, the “End-point activity (no viable bacteria detected after both challenges), compound alone (QA / QB)” value in [6] turned out to be 170.0 ppm.
`CC(O)CN(C)CC(C)OCO` (centres unmarked) [NMPFA, N-methyl-2-hydroxymethyleneoxypropyl-2′-hydroxypropylamine]: the “MIC end point, compound alone (QA / QB)” value in [1] (G. virens, PDA, 28°, 7-10 days) was >2,000 ppm; in assay [2], >2,000 ppm; in assay [3], 250 ppm; in assay [4] it was 500 ppm; in assay [5] it was 1,000 ppm; in assay [7] it was 1,000 ppm. Further, the “MIC end point, compound alone (QA / QB)” value in assay [8] is given as 1,000 ppm; in [9], 1,000 ppm; in assay [10], 1,000 ppm; in assay [11] (setting [12]), 500 ppm. Further, in assay [6], the “End-point activity (no viable bacteria detected after both challenges), compound alone (QA / QB)” value is recorded as 1,000 ppm.
Consider `OCCNCO` [HMAE, 2-[(hydroxymethyl)amino]ethanol], for which the MIC in [1] (ATCC9645, read-out: MIC end point, compound alone (QA / QB)) came to 1000 µg/mL; in assay [11] (ATCC27328, 48 h), 250 µg/mL.
`CC1(C)COCN1` [DMO, 4,4-dimethyloxazolidine]: the MIC in assay [1] (ATCC9645, G. virens, PDA, 28°, 7-10 days, read-out: MIC end point, compound alone (QA / QB)) was 770 µg/mL; in [11] (ATCC27328, B. subtilis, TSA, 32° C., 48 hours), 385 µg/mL.
